Measurements: patent US20020082180A1, “Fabric cleaning system” (Unilever Home & Personal Care USA, Division of Conopco, Inc., priority 2000, published 2002)

Experiment: log P, partitioning coefficient of the fluorescer between octanol and water
Type: physicochemical
Settings: octanol/water at ambient temperature
Excerpt: We have found the fluorescers of the present invention to be very effective when used with carbon dioxide whilst the fluorescers are readily soluble in carbon dioxide without the need for surfactants. A preferable selection of fluorescers can be described by their log P value. Log P being the partitioning coefficient of the fluorescer between octanol and water at ambient temperature, whereby P is the concentration of the fluorescer in octanol divided by the concentration of fluorescer in water. (Leo et al. Chem Rev 1971, 71, 525). If appropriate, the log P is determined in the presence of sodium and/or chloride as counterions. Accordingly, a preferred group of fluorescer has a log P of at least 2, more preferably at least 2.5. In many cases, the log P may also be estimated using specially designed programs, also described as clog P or calculated log P. However, if in certain cases these programs are inappropriate, the real log P should be measured.

log P: > 2.5
Compound: c1ccc2oc(-c3ccc(-c4nc5ccccc5o4)s3)nc2c1 [Tinopal™ SOP]
